Results as given in patent US9505754B2, “Compound useful for the treatment of degenerative and inflammatory diseases” (GALAPAGOS NV, priority 2009, dated 2016).

Assays:
[1] = test system: collagen induced arthritis; assay: Rat CIA (collagen induced arthritis) model; assay type: in vivo
Protocol: Completed Freund's adjuvant (CFA) and incomplete Freund's adjuvant (IFA) were purchased from Difco. Bovine collagen type […] (CII), lipopolysaccharide (LPS), and Enbrel were obtained from Chondrex (Isle d'Abeau, France); Sigma (P4252, L'Isle d'Abeau, France), Whyett (25 mg injectable syringe, France) Acros Organics (Palo Alto, Calif.), respectively. All other reagents used were of reagent grade and all solvents were of analytical grade.
Dark Agouti rats (male, 7-8 weeks old) are obtained from Harlan Laboratories (Maison-Alfort, France). DBA/1J mice (male, 7 weeks old) were obtained from Centre d'Elevage et de Reproduction JANVIER (CERJ) (Laval, France). Rats and mice were kept on a 12 hours light/dark cycle (0700-1900). The temperature was maintained at 22° C., and food and water were provided ad libitum.
One day before the experiment, CII solution (2 mg/mL) was prepared with 0.05 M acetic acid and stored at 4° C. Just before the immunization, equal volumes of adjuvant (IFA) and CII were mixed by a homogenizer in a pre-cooled glass bottle in an ice water bath. Extra adjuvant and prolonged homogenization might be required if an emulsion is not formed.
Rat: 0.2 mL of the emulsion is injected intradermally at the base of the tail of each rat on day 1, a second booster intradermal injection (CII solution at 2 mg/mL in CFA 0.1 mL saline) is performed on day 9. This immunization method is modified from published methods (Sims N A et al., (2004) Targeting osteoclasts with zoledronic acid prevents bone destruction in collagen-induced arthritis, Arthritis Rheum. 50 2338-2346; Jou et al., 2005).
The therapeutic effects of the test compounds were tested in the rat or mouse CIA model. Animals were randomly divided into equal groups and each group contained 10 animals. All rats are immunized on day 1 and boosted on day 9. All mice were immunized on day 1 and boosted on day 21. Therapeutic dosing lasted from day 16 to day 30. The negative control group was treated with vehicle (MC 0.5%) and the positive control group with Enbrel (10 mg/kg, 3× week., s.c.). A compound of interest was typically tested at 3 doses, e.g. 3, 10, 30 mg/kg, p.o.
Arthritis was scored according the method of Khachigian 2006, Lin et al 2007 and Nishida et al. 2004). […]
The area under the curve (AUC) from day 1 to day 14 was calculated for each individual rat. The AUC of each animal was divided by the average AUC obtained for the vehicle in the study from which the data on that animal was obtained and multiplied by 100 (i.e. the AUC was expressed as a percentage of the average vehicle AUC per study).
The clinical score difference for each animal was divided by the average clinical score difference obtained for the vehicle in the study from which the data on that animal was obtained and multiplied by 100 (i.e. the difference was expressed as a percentage of the average clinical score difference for the vehicle per study).
Post-mortem, a Larsen’ score was derived for both hind paws of all rats by at least 2 scientists. The average of these scores was calculated to obtain one Larsen’ score per rat. […]

[2] = Microsomal stability, human; assay type: in vitro ADME; details: human liver microsomes, 3 μM compound, 1 hour, 37° C.
Protocol: (§1) A 10 mM stock solution of compound in DMSO was diluted 1000 fold in a 182 mM phosphate buffer pH7.4 in a 96 deep well plate (Greiner, Cat no. 780285) and pre-incubated at 37° C.
(§2) 40 μL of deionised water was added to a well of a polypropylene Matrix 2D barcode labelled storage tube (Thermo Scientific) and pre-incubated at 37° C.
(§3) A Glucose-6-phophate-dehydrogenase (G6PDH) working stock solution was prepared in 182 mM phosphate buffer pH7.4 and placed on ice before use. A co-factor containing MgCl2, glucose-6-phosphate and NADP+ was prepared in deionised water and placed on ice before use. […]
(§4) These plates were sealed with sealing mats (MA96RD-04S) of www.kinesis.co.uk and samples were measured at room temperature on LCMS (ZQ 1525 from Waters) under optimized conditions using Quanoptimize to determine the appropriate mass of the parent molecule.
(§5) The samples were analyzed on LCMS with a flow rate of 1 mL/min. […]
(§6) Peak area from the parent compound at time 0 was considered to be 100% remaining. The percentage remaining after 1 hour incubation was calculated from time 0 and was calculated as the percentage remaining. […]
(§7) The data on microsomal stability are expressed as a percentage of the total amount of compound remaining after 60 minutes.

[3] = Microsomal stability, rat; assay type: in vitro ADME; details: rat liver microsomes, 3 μM compound, 1 hour, 37° C.
Protocol: as §1, §2, §3, §4, §5, §6, §7

Microsomal stability, Human (percentage of compound remaining after 60 minutes) [2]: 76-100%
Microsomal stability, Rat (percentage of compound remaining after 60 minutes) [3]: 76-100%
SMILES: CC1(C)CN(C(=O)c2ccc(-c3cccc4nc(NC(=O)C5CC5)nn34)cc2)C1 [Compound 1, Cyclopropanecarboxylic acid {5-[4-(3,3-dimethyl-azetidine-1-carbonyl)-phenyl]-[1,2,4]triazolo[1,5-a]pyridin-2-yl}-amide]
endpoint clinical score ([1]; rat CIA, from 1 mg/kg): significant improvements
paw swelling ([1]; rat CIA, from 1 mg/kg): significant improvements
AUC of the clinical score ([1]; rat CIA, from 10 mg/kg): significant improvements
Larsen' score ([1]; rat CIA, from 30 mg/kg): significant improvements
efficacy in rat CIA study readouts ([1]; rat, 30, 10, 3 and 1 mg/kg): efficacious in all readouts
